Laboratory results taken from patent publication US20080318925A1 (ASTRAZENECA AB, priority 2007, published 2008).
pKi: −log10 of the molar value.

target: T1, GABAA2 receptors (α2, β3, γ3 receptor subunits transfected into Sf9 cells) (Homo sapiens, UniProt P47869+Q99928); test: GABAA2 binding method ([3H]-flunitrazepam displacement); details: [3H]-flunitrazepam ~2 nM, Sf9 membranes, 1 hr at 4° C.
T1 construct: host or cells: Sf9 cells (membranes)
T1 sequence (P47869 29-451): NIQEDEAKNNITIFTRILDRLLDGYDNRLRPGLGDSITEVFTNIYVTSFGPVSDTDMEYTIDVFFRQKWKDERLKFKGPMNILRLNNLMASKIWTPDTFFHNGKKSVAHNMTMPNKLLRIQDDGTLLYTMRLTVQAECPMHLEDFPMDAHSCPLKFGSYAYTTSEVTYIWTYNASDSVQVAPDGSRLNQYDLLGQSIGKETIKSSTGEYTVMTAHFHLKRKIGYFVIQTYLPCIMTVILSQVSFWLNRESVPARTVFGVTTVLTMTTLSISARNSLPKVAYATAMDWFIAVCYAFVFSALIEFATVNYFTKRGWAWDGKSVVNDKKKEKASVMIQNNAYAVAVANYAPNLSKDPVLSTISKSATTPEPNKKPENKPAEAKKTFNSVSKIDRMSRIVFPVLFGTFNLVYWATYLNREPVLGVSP
T1 sequence (P28472 26-473 partner): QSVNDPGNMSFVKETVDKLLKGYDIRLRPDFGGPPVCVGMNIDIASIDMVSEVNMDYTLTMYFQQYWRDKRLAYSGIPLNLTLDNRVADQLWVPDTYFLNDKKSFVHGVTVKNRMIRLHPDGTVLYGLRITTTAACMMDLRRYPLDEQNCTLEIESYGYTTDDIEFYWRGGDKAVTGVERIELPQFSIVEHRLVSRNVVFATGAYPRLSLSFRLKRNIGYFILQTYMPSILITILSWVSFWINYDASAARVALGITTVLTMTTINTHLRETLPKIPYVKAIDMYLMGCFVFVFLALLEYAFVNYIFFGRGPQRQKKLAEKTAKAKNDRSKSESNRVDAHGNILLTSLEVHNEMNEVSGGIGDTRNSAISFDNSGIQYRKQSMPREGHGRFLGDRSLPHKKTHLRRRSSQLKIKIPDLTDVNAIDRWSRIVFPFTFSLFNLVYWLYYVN
T1 sequence (Q99928 18-467): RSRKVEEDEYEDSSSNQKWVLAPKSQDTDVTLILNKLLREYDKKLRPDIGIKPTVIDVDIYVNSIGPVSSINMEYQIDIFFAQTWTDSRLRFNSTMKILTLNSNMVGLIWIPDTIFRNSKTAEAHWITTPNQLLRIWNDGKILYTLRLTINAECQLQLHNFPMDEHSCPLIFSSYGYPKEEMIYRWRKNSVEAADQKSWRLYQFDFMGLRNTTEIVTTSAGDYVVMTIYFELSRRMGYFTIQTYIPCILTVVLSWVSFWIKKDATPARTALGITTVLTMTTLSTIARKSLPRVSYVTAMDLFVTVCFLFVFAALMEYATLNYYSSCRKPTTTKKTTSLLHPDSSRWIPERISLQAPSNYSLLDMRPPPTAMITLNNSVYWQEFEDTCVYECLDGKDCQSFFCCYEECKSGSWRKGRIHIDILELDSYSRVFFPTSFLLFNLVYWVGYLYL
Protocol: In some embodiments, the binding test was directed to a subtype of GABAA receptors, such as GABAA1 receptors (i.e., those containing the α1 subunit), GABAA2 receptors (i.e., those containing the α2 subunit), GABAA3 receptors (i.e., those containing the α3 subunit) and GABAA5 receptors (i.e., those containing the α5 subunit).
• Assay and Wash Buffer: 50 mM Tris-Citrate, 200 mM NaCl, pH 7.8 Compounds at 10 mM in DMSO: Put 75 μl in column 1 of compound plate.
Flumazenil, 10 mM (for NSB)
[^3H]-Flunitrazepam (Cat #NET567): Prepare 10× stock=20 nM, [F} in assay=˜2 nM
1. […] Add 5 ul of 30 uM flumazenil to wells 12 D-E for 50% control wells.
2. Spot 2 μl of compound dilutions into dry plate (Automation Program 3). Manually spot 2 μl 10 mM flumazenil into wells 12 F-H for nonspecific control.
3. Make 1:100 dilution in assay buffer (2 μl into 200 μl) and dispense 25 μl compound into assay plates (Automation Program 4).
4. Dispense 200 μl membranes into assay plate (Automation Program 5).
5. Add 25 μl [^3H]-Flunitrazepam (Automation Program 6). Incubate for 1 hr at 4° C.
6. Collect membranes on a cell harvester onto GF/B filter plates (pre-wet with dH2O and wash 5× 400 μl/well, with cold assay buffer. (First 3 washes are considered hot; last two are cold.)
7. Dry plates for 2-3 hours at RT.
8. Add 40 μl Microscint 40/well (Automation Program 7); seal plates. Count on a TopCount.
Data is analyzed by calculating percent of control, IC50, and Ki in an XLfit template. The following formula is used in the templates: […]

pKi | Structure (SMILES)
9.21 | CCCNC(=O)c1nnc2c(-c3cccc(C)c3C)c(F)ccc2c1N
9.20 | CCCNC(=O)c1nnc2c(-c3ccc(OC)cc3C(F)(F)F)c(F)ccc2c1N
9.16 | COc1cccc(F)c1-c1cccc2c(N)c(C(=O)NC3CC3)nnc12
9.15 | CCCNC(=O)c1nnc2c(-c3cc(Cl)ccc3Cl)cccc2c1N
9.13 | CCCNC(=O)c1nnc2c(-c3cc(F)ccc3C)c(F)ccc2c1N
9.07 | CCCNC(=O)c1nnc2c(-c3cc(C)ccc3F)cccc2c1N
9.04 | CCCNC(=O)c1nnc2c(-c3cnc(OC)nc3OC)c(F)ccc2c1N
9.03 | CCCNC(=O)c1nnc2c(-c3cc(C)ccc3OC)c(F)ccc2c1N
9.03 | CCCNC(=O)c1nnc2c(-c3cccc(OC)c3F)c(F)ccc2c1N
9.01 | CCCNC(=O)c1nnc2c(-c3cc(F)ccc3OC)c(F)ccc2c1N
9.00 | CCCNC(=O)c1nnc2c(-c3cc(F)ccc3F)cccc2c1N
9.00 | CCCNC(=O)c1nnc2c(-c3ccccc3)c(F)ccc2c1N
9.00 | COc1ccc(-c2cccc3c(N)c(C(=O)NC4CC4)nnc23)c(OC)n1
8.99 | CCCNC(=O)c1nnc2c(-c3ccc(F)cc3OCC)c(F)ccc2c1N
8.95 | CCCNC(=O)c1nnc2c(-c3cc(Cl)ccc3OC)cccc2c1N
8.95 | CCCNC(=O)c1nnc2c(-c3cccnc3F)cccc2c1N
8.93 | CCCNC(=O)c1nnc2c(-c3cccc(C#N)c3)cccc2c1N

pKi | Structure (SMILES)
8.90 | CCCNC(=O)c1nnc2c(-c3cc(OC)ccc3Cl)c(F)ccc2c1N
8.88 | CCCNC(=O)c1nnc2c(-c3cc(C)ccc3C)c(F)ccc2c1N
8.87 | CCCNC(=O)c1nnc2c(-c3cc(Cl)ccc3Cl)c(F)ccc2c1N
8.87 | CCCNC(=O)c1nnc2c(-c3cc(C(F)(F)F)ccc3Cl)cccc2c1N
8.83 | CCCNC(=O)c1nnc2c(-c3cc(F)c(OC)cc3F)cccc2c1N
8.78 | CCCNC(=O)c1nnc2c(-c3ccncc3)cccc2c1N
8.78 | CCCNC(=O)c1nnc2c(-c3ccc(C)nc3F)cccc2c1N
8.77 | CCCNC(=O)c1nnc2c(-c3cnccc3C)cccc2c1N
8.76 | CCCNC(=O)c1nnc2c(-c3ccc(F)cc3F)cccc2c1N
8.76 | CCCNC(=O)c1nnc2c(-c3cc(OC)ccc3F)cccc2c1N
8.74 | CCCNC(=O)c1nnc2c(-c3cccc(Cl)c3Cl)cccc2c1N
8.74 | CCCCNC(=O)c1nnc2c(-c3cnccc3OC)cccc2c1N
8.68 | COc1ccc(-c2cccc3c(N)c(C(=O)NC4CC4)nnc23)c(OC)c1
8.68 | CCCNC(=O)c1nnc2c(-c3cccnc3OC)cccc2c1N
9.03 | COc1ccc(-c2cccc3c(N)c(C(=O)NC4CCC4)nnc23)c(OC)c1
8.40 | Cc1ccc(-c2cccc3c(N)c(C(=O)NC4CC4)nnc23)cn1
8.34 | CCNC(=O)c1nnc2c(-c3ccc(OC)cc3OC)cccc2c1N
